According to ChEMBL document CHEMBL1201862, “PubChem BioAssay data set” (2004):
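Method: 48-hour compound exposure of cells in 96-well plates, five concentrations, linear interpolation of endpoints. Abbreviation: GI50, concentration required for 50% inhibition of growth.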 Activity calls are given as the source filed them. Rule as the data show it: active = GI50 up to about 1.1 µM and inactive = higher.

Legend:
Assay in all cases: NCI anticancer screen, dose series, 48 h
HL-60 = system: HL-60
OVCAR-8 = system: OVCAR-8
ACHN = system: ACHN
DU-145 = system: DU-145
SK-OV-3 = system: SK-OV-3
BT-549 = system: BT-549
COLO 205 = system: COLO 205
MDA-N = system: MDA-N
HOP-92 = system: HOP-92
SF-268 = system: SF-268
A549 = system: A549
NCI-H460 = system: NCI-H460
SNB-19 = system: SNB-19
NCI-H23 = system: NCI-H23
NCI-H522 = system: NCI-H522
OVCAR-4 = system: OVCAR-4
SF-295 = system: SF-295
UACC-62 = system: UACC-62
IGROV-1 = system: IGROV-1
T47D = system: T47D

SMILES | GI50 (HL-60) | GI50 (OVCAR-8) | GI50 (ACHN) | GI50 (DU-145) | GI50 (SK-OV-3) | GI50 (BT-549) | GI50 (COLO 205) | GI50 (MDA-N) | GI50 (HOP-92) | GI50 (SF-268) | GI50 (A549) | GI50 (NCI-H460) | GI50 (SNB-19) | GI50 (NCI-H23) | GI50 (NCI-H522) | GI50 (OVCAR-4) | GI50 (SF-295) | GI50 (UACC-62) | GI50 (IGROV-1) | GI50 (T47D)
CC(=O)O[C@H]1C(=O)[C@@]2(C)[C@H]([C@H](OC(=O)c3ccccc3)[C@]3(O)C[C@H](OC(=O)[C@H](O)[C@@H](NC(=O)OC(C)(C)C)c4ccco4)C(C)=C1C3(C)C)[C@]1(OC(C)=O)CO[C@@H]1C[C@@H]2O | < 0.005 µM (active) | 0.00615 µM (active) | 8.2 µM (inactive) | < 0.005 µM (active) | < 0.005 µM (active) | < 0.005 µM (active) | < 0.005 µM (active) | < 0.005 µM (active) | 7.23 µM (inactive) | < 0.005 µM (active) | < 0.005 µM (active) | < 0.005 µM (active) | 0.00971 µM (active) | 0.00966 µM (active) | < 0.005 µM (active) | 4.18 µM (inactive) | 0.00687 µM (active) | 0.0129 µM (active) | 0.00682 µM (active) | 0.264 µM (active)
C[C@H](CCC(=O)O)[C@H]1CC[C@@]2(C)[C@@H]3C(=O)C[C@H]4C(C)(C)[C@@H](O)CC[C@]4(C)[C@H]3C(=O)C[C@]12C | 25.1 µM (inactive) | > 100 µM (inactive) | > 100 µM (inactive) | > 100 µM (inactive) | > 100 µM (inactive) | > 100 µM (inactive) | > 100 µM (inactive) | > 100 µM (inactive) | > 100 µM (inactive) | > 100 µM (inactive) | > 100 µM (inactive) | 62.7 µM (inactive) | > 100 µM (inactive) | > 100 µM (inactive) | > 100 µM (inactive) | > 100 µM (inactive) | > 100 µM (inactive) | > 100 µM (inactive) | > 100 µM (inactive) | > 100 µM (inactive)
S=C1N=C(Cl)/C(=C\c2ccccc2)N1 | > 100 µM (inactive) | > 100 µM (inactive) | > 100 µM (inactive) | > 100 µM (inactive) | > 100 µM (inactive) | > 100 µM (inactive) | > 100 µM (inactive) | > 100 µM (inactive) | > 100 µM (inactive) | > 100 µM (inactive) | > 83.6 µM (inactive) | > 100 µM (inactive) | > 100 µM (inactive) | > 100 µM (inactive) | > 100 µM (inactive) | > 100 µM (inactive) | > 100 µM (inactive) | > 100 µM (inactive) | > 100 µM (inactive) | > 100 µM (inactive)
Cc1cc(C)nc(NS(=O)(=O)c2ccc(Nc3c4ccccc4nc4ccc(C(=O)Nc5ccc(S(N)(=O)=O)cc5)cc34)cc2)n1 | > 100 µM (inactive) | 43 µM (inactive) | > 100 µM (inactive) | > 100 µM (inactive) | > 100 µM (inactive) | 24.9 µM (inactive) | > 100 µM (inactive) | > 100 µM (inactive) | > 100 µM (inactive) | > 100 µM (inactive) | > 100 µM (inactive) | > 100 µM (inactive) | > 100 µM (inactive) | > 100 µM (inactive) | > 100 µM (inactive) | > 100 µM (inactive) | > 100 µM (inactive) | > 100 µM (inactive) | > 100 µM (inactive) | 78 µM (inactive)
O=c1[nH]nc(-c2ccccc2)c2[nH]c3c(c12)CCCc1ccccc1-3 | 20.9 µM (inactive) | 17.4 µM (inactive) | 11.9 µM (inactive) | 17.6 µM (inactive) | 52.2 µM (inactive) | 20.7 µM (inactive) | 9.79 µM (inactive) | 12.5 µM (inactive) | 13.3 µM (inactive) | 24.9 µM (inactive) | 9.46 µM (inactive) | 16 µM (inactive) | 10.7 µM (inactive) | 52.2 µM (inactive) | 7.69 µM (inactive) | 12.9 µM (inactive) | 20.7 µM (inactive) | 11.7 µM (inactive) | 12.5 µM (inactive) | 8.97 µM (inactive)
C=C1C[C@@H](O)[C@@H](Br)C(C)(C)[C@]12CCC(C)(Cl)C(Br)C2 (stereo not given in full) | 25.6 µM (inactive) | 34.7 µM (inactive) | 32.8 µM (inactive) | 62.4 µM (inactive) | 57.3 µM (inactive) | 35.5 µM (inactive) | 4.86 µM (inactive) | 25.5 µM (inactive) | 24.2 µM (inactive) | 32 µM (inactive) | 26.2 µM (inactive) | 27.3 µM (inactive) | > 31.6 µM (inactive) | 21.1 µM (inactive) | 17.5 µM (inactive) | 21.9 µM (inactive) | 30.6 µM (inactive) | 40.5 µM (inactive) | 7.93 µM (inactive) | 19.5 µM (inactive)
CCCCCCCCCCCCCCCC(=O)Nc1ccn(C2CCC(COP(=O)(O)OCC3OC(n4cc(F)c(=O)[nH]c4=O)CC3OC(C)=O)O2)c(=O)n1 (stereo not given) | 11.2 µM (inactive) | 10.6 µM (inactive) | 3.14 µM (inactive) | 9.25 µM (inactive) | 29.2 µM (inactive) | 2.39 µM (inactive) | 13.1 µM (inactive) | 19.6 µM (inactive) | 5.62 µM (inactive) | 1.45 µM (inactive) | 1.67 µM (inactive) | 0.531 µM (active) | 3.66 µM (inactive) | 8.18 µM (inactive) | 12.3 µM (inactive) | 14.1 µM (inactive) | 6.71 µM (inactive) | 10.7 µM (inactive) | 20.5 µM (inactive) | 18.3 µM (inactive)
CC1OC(OC2C(O)COC(OC3C(C)OC(OC4C(OC(=O)[C@]56CCC(C)(C)C[C@@H]5C5=CCC7[C@@]8(C)C[C@H](O)[C@H](OC9OC(CO)C(O)C(OC%10OC(CO)C(O)C(O)C%10O)C9O)[C@@](C)(CO)[C@@H]8CC[C@@]7(C)[C@]5(C)CC6)OCC(O)C4O)C(O)C3OC3OCC(O)C(O)C3O)C2O)C(O)C(O)C1O (stereo not given in full) | 3.72 µM (inactive) | 13.1 µM (inactive) | 5.41 µM (inactive) | 7.1 µM (inactive) | 14.8 µM (inactive) | 9.57 µM (inactive) | 1.92 µM (inactive) | 2.87 µM (inactive) | 12.3 µM (inactive) | 12.2 µM (inactive) | 2.11 µM (inactive) | 17.4 µM (inactive) | 7.67 µM (inactive) | 4.04 µM (inactive) | 9.93 µM (inactive) | 11.7 µM (inactive) | 3.14 µM (inactive) | 3.66 µM (inactive) | 6.12 µM (inactive) | 3.96 µM (inactive)
C#CCSc1nc(-c2ccco2)n[nH]1 | > 100 µM (inactive) | > 100 µM (inactive) | > 100 µM (inactive) | > 100 µM (inactive) | > 100 µM (inactive) | > 100 µM (inactive) | > 100 µM (inactive) | > 100 µM (inactive) | > 100 µM (inactive) | > 100 µM (inactive) | > 100 µM (inactive) | > 100 µM (inactive) | > 100 µM (inactive) | > 100 µM (inactive) | > 100 µM (inactive) | > 100 µM (inactive) | > 100 µM (inactive) | > 100 µM (inactive) | 48.5 µM (inactive) | > 100 µM (inactive)
O=C(O)CC(NC(=O)/C(=C/c1ccccc1)NC(=O)c1ccccc1)C(=O)O (stereo not given) | > 100 µM (inactive) | > 100 µM (inactive) | > 100 µM (inactive) | > 100 µM (inactive) | > 100 µM (inactive) | > 100 µM (inactive) | > 100 µM (inactive) | > 100 µM (inactive) | > 100 µM (inactive) | > 100 µM (inactive) | > 100 µM (inactive) | > 100 µM (inactive) | > 100 µM (inactive) | > 100 µM (inactive) | > 100 µM (inactive) | > 100 µM (inactive) | > 100 µM (inactive) | > 100 µM (inactive) | > 100 µM (inactive) | > 100 µM (inactive)
CC(CN(C)C)C(=O)/C=C/c1ccc(Cl)c(Cl)c1 (stereo not given) | 1.62 µM (inactive) | 1.52 µM (inactive) | 1.87 µM (inactive) | > 100 µM (inactive) | 4.55 µM (inactive) | 2.14 µM (inactive) | 1.3 µM (inactive) | 2.07 µM (inactive) | 1.68 µM (inactive) | 1.85 µM (inactive) | 3.33 µM (inactive) | 2.24 µM (inactive) | 5.43 µM (inactive) | 2.11 µM (inactive) | 1.55 µM (inactive) | 4.76 µM (inactive) | 3.44 µM (inactive) | 1.8 µM (inactive) | 1.78 µM (inactive) | 24.7 µM (inactive)
Cn1c(=O)cc(NNc2ccccc2)[nH]c1=O | 26.7 µM (inactive) | 20.9 µM (inactive) | 36.4 µM (inactive) | 54.2 µM (inactive) | > 100 µM (inactive) | > 100 µM (inactive) | > 100 µM (inactive) | > 100 µM (inactive) | 22.1 µM (inactive) | 44.3 µM (inactive) | > 100 µM (inactive) | > 100 µM (inactive) | > 100 µM (inactive) | > 100 µM (inactive) | 15.1 µM (inactive) | > 100 µM (inactive) | > 100 µM (inactive) | 59.4 µM (inactive) | 25.4 µM (inactive) | 17.6 µM (inactive)
CC(CC[C@@]1(O)OC2C[C@H]3[C@@H]4CC[C@H]5CC(OC6OC(CO)C(OC7OC(CO)C(O)C(OC8OCC(O)C(O)C8O)C7OC7OC(CO)C(O)C(O)C7O)C(O)C6O)[C@H](O)CC5(C)[C@H]4CCC3(C)C2[C@@H]1C)COC1OC(CO)C(O)C(O)C1O (stereo not given in full) | 6.9 µM (inactive) | 9.86 µM (inactive) | 2.09 µM (inactive) | 3.09 µM (inactive) | 13.2 µM (inactive) | 1.76 µM (inactive) | 13 µM (inactive) | 15.4 µM (inactive) | 17.7 µM (inactive) | 2.48 µM (inactive) | 3.47 µM (inactive) | 2.09 µM (inactive) | 28.3 µM (inactive) | 2.8 µM (inactive) | 2.87 µM (inactive) | 9.79 µM (inactive) | 4.24 µM (inactive) | 16.4 µM (inactive) | 11.3 µM (inactive) | 12.2 µM (inactive)
